Test results as given in ChEMBL document CHEMBL5241120, “Insights into the medicinal chemistry of heterocycles integrated with a pyrazolo[1,5-a]pyrimidine scaffold” (RSC Med Chem, 2022).

Key:
[1] = system: Panel NCI-60 (60 carcinoma cell lines); assay: Cytotoxicity against human Panel NCI-60 (60 carcinoma cell lines); assay type: functional; set-up: concentration or dose not given beside the values
Bacillus subtilis = assay: Antibacterial activity against Bacillus subtilis assessed as zone of inhibition; assay type: functional
Escherichia coli = assay: Antibacterial activity against Escherichia coli assessed as zone of inhibition; assay type: functional
HepG2 = assay: Cytotoxicity against human HepG2 cells by MTT assay; assay type: functional, cell-based
HeLa = assay: Cytotoxicity against human HeLa cells by MTT assay; assay type: functional, cell-based
Pseudomonas aeruginosa = assay: Antibacterial activity against Pseudomonas aeruginosa assessed as zone of inhibition; assay type: functional
MCF7 = assay: Cytotoxicity against human MCF7 cells by MTT assay; assay type: functional, cell-based
Staphylococcus aureus = assay: Antibacterial activity against Staphylococcus aureus assessed as zone of inhibition; assay type: functional

Structure (SMILES): COc1ccc(Nc2nn3c(C)cc(C)nc3c2C(=O)Nc2ccc(C)cc2)c(OC)c1
- Activity [1]: 0.5%

Structure (SMILES): COc1ccc(Nc2nn3c(N)c(C#N)c(-c4cc(OC)ccc4OC)nc3c2C(=O)Nc2ccc(Cl)cc2)cc1
- inhibition zone (IZ) (Bacillus subtilis): 21 mm
- inhibition zone (IZ) (Escherichia coli): 16 mm

Structure (SMILES): COc1ccc(Nc2nn3c4c(cnc3c2C(=O)Nc2ccc(Cl)cc2)C(=O)CC(C)(C)C4)cc1
- IC50 (HepG2): 72.2 µM

Structure (SMILES): COc1ccc(-c2cc(C(=O)N3CCN(C(=O)c4ccccc4NCc4ccco4)CC3)nc3cc(-c4ccccc4)nn23)cc1
- IC50 (HeLa): 1.73 µM

Structure (SMILES): COc1ccc(Nc2nn3c(O)cc(C)nc3c2C(=O)Nc2ccccc2)c(OC)c1
- Activity [1]: 0.5%

Structure (SMILES): COc1ccc(NC(=O)c2c(Nc3ccc(OC)cc3OC)nn3c(C)cc(C)nc23)c(OC)c1
- Activity [1]: 0.5%

Structure (SMILES): COc1ccc(Nc2nn3c(C)cc(C)nc3c2C(N)=O)c(OC)c1
- Activity [1]: 0.5%

Structure (SMILES): COc1cc(CNc2ccccc2C(=O)N2CCN(C(=O)c3cc(-c4ccc(C)cc4)n4nc(-c5ccccc5)cc4n3)CC2)cc(OC)c1OC
- IC50 (HeLa): 1.81 µM

Structure (SMILES): COc1ccc(Nc2nn3c(O)cc(C)nc3c2C(=O)Nc2ccc(C)cc2)c(OC)c1
- Activity [1]: 0.5%

Structure (SMILES): NC(=O)c1c(Nc2ccccc2)nn2c(-c3ccc(F)cc3)ccnc12
- IC50 (HepG2): 72.2 µM

Structure (SMILES): NC(=O)c1c(Nc2ccc(Br)cc2)nn2c3c(cnc12)CCCCCC3
- inhibition zone (IZ) (Pseudomonas aeruginosa): 9 mm
- inhibition zone (IZ) (Bacillus subtilis): 9 mm

Structure (SMILES): COc1ccc(-c2ccnc3c(C(N)=O)c(Nc4ccc(Cl)cc4)nn23)cc1
- IC50 (HepG2): 72.2 µM

Structure (SMILES): CNc1nn2c(-c3ccccc3)ccnc2c1C(N)=O
- inhibition zone (IZ) (Pseudomonas aeruginosa): 9 mm
- inhibition zone (IZ) (Bacillus subtilis): 9 mm

Structure (SMILES): COc1ccc(Nc2nn3c(-c4ccc(Br)cc4)ccnc3c2C(N)=O)cc1
- IC50 (MCF7): 65.3 µM
- IC50 (HepG2): 70.3 µM

Structure (SMILES): COc1ccc(Nc2nn3c(N)c(C#N)c(-c4cccc(C)c4)nc3c2C(=O)Nc2ccccc2)cc1
- inhibition zone (IZ) (Bacillus subtilis): 20 mm
- inhibition zone (IZ) (Escherichia coli): 16 mm

Structure (SMILES): COc1ccc(Nc2nn3c(-c4cccs4)ccnc3c2C(N)=O)cc1
- IC50 (HepG2): 72.2 µM

Structure (SMILES): NC(=O)c1c(Nc2ccc(Cl)cc2)nn2c(-c3ccccc3)ccnc12
- IC50 (HepG2): 72.2 µM

Structure (SMILES): O=C(Nc1ccccc1)c1cnn2c(-c3ccccc3)ccnc12
- inhibition zone (IZ) (Staphylococcus aureus): 10 mm
- inhibition zone (IZ) (Escherichia coli): 10 mm

Structure (SMILES): CC1(C)CC(=O)c2cnc3c(C(N)=O)c(Nc4ccccc4)nn3c2C1
- IC50 (MCF7): 66.5 µM
- IC50 (HepG2): 77.6 µM

Structure (SMILES): NC(=O)c1c(Nc2ccc(Br)cc2)nn2c(-c3ccc(Cl)cc3)ccnc12
- inhibition zone (IZ) (Staphylococcus aureus): 9 mm

Structure (SMILES): COc1ccc(Nc2nn3c(O)cc(-c4ccccc4)nc3c2C(=O)Nc2ccc(C)cc2)c(OC)c1
- Activity [1]: 0.5%

Structure (SMILES): CCOC(=O)c1cnc2c(C(=O)Nc3ccccc3)cnn2c1C
- inhibition zone (IZ) (Escherichia coli): 10 mm

Structure (SMILES): CCOC(=O)c1cnn(-c2cc(C)nc3c(C#N)cnn23)c1N
- inhibition zone (IZ) (Bacillus subtilis): 17.1 mm
- inhibition zone (IZ) (Escherichia coli): 15.4 mm

Structure (SMILES): Cc1cc(-n2ncc3c(=O)n(-c4ccccc4)cnc32)n2ncc(C#N)c2n1
- inhibition zone (IZ) (Bacillus subtilis): 14.3 mm
- inhibition zone (IZ) (Escherichia coli): 13.1 mm

Structure (SMILES): COc1ccc(-c2cc(C(=O)N3CCN(C(=O)c4ccccc4NCc4cccc5c4OCO5)CC3)nc3cc(-c4ccccc4)nn23)cc1
- IC50 (HeLa): 1.95 µM

Structure (SMILES): NC(=O)c1c(Nc2ccc(Cl)cc2)nn2c(-c3ccc(Br)cc3)ccnc12
- IC50 (HepG2): 72.2 µM

Structure (SMILES): COc1ccc(-c2cc(C(=O)N3CCN(C(=O)c4ccccc4NCc4cc(OC)c(OC)c(OC)c4)CC3)nc3cc(-c4ccccc4)nn23)cc1
- IC50 (HeLa): 1.89 µM

Structure (SMILES): NC(=O)c1c(Nc2ccc(Br)cc2)nn2c(-c3ccccc3)ccnc12
- inhibition zone (IZ) (Pseudomonas aeruginosa): 9 mm
- inhibition zone (IZ) (Bacillus subtilis): 9 mm
- inhibition zone (IZ) (Escherichia coli): 9 mm

Structure (SMILES): COc1ccc(NC(=O)c2c(Nc3ccc(OC)cc3OC)nn3c(-c4ccccc4)cc(-c4ccccc4)nc23)c(OC)c1
- Activity [1]: 0.5%

Structure (SMILES): COc1cc(-c2cc(C(=O)N3CCN(C(=O)c4ccccc4NCc4cccc5c4OCO5)CC3)nc3cc(-c4ccccc4)nn23)cc(OC)c1OC
- IC50 (HeLa): 1.76 µM

Structure (SMILES): NC(=O)c1c(Nc2ccccc2)nn2c(-c3ccc(Br)cc3)ccnc12
- IC50 (MCF7): 64 µM
- inhibition zone (IZ) (Bacillus subtilis): 9 mm
- IC50 (HepG2): 76.2 µM

Structure (SMILES): O=C(Nc1ccccc1)c1cnn2c(-c3ccc([N+](=O)[O-])cc3)ccnc12
- inhibition zone (IZ) (Escherichia coli): 11 mm

Structure (SMILES): NC(=O)c1c(Nc2ccc(Cl)cc2)nn2c(-c3ccc(F)cc3)ccnc12
- IC50 (HepG2): 72.2 µM

Structure (SMILES): NC(=O)c1c(Nc2ccccc2)nn2c(-c3ccc(Cl)cc3)ccnc12
- IC50 (MCF7): 63.2 µM
- inhibition zone (IZ) (Pseudomonas aeruginosa): 9 mm
- inhibition zone (IZ) (Bacillus subtilis): 9 mm
- IC50 (HepG2): 86.6 µM

Structure (SMILES): O=C(c1cc(-c2ccccc2)n2nc(-c3ccccc3)cc2n1)N1CCN(C(=O)c2ccccc2NCc2cccc3c2OCO3)CC1
- IC50 (HeLa): 1.95 µM

Structure (SMILES): Nc1nc2c(/N=N/c3ccc(C(F)(F)F)cc3)c(N)nn2c(N)c1/N=N/c1nccs1
- IC50 (HepG2): 4.1 µg/mL

Structure (SMILES): Cc1ccc(Nc2nn3c(-c4ccc(Br)cc4)ccnc3c2C(N)=O)cc1
- IC50 (HepG2): 72.2 µM

Structure (SMILES): COc1ccc(NC(=O)c2c(Nc3ccc(OC)cc3OC)nn3c(O)cc(C)nc23)c(OC)c1
- Activity [1]: 0.5%

Structure (SMILES): O=C(Nc1ccccc1-c1ccnc2c(C(=O)NCc3ccc(F)cc3)cnn12)c1c(Cl)cc(Cl)cc1Cl
- IC50 (HeLa): 8.7 µM

Structure (SMILES): COc1ccc(Nc2nn3c(-c4ccccc4)cc(-c4ccccc4)nc3c2C(=O)Nc2ccccc2)c(OC)c1
- Activity [1]: 0.5%

Structure (SMILES): NC(=O)c1c(Nc2ccc(Cl)cc2)nn2c(-c3ccc(Cl)cc3)ccnc12
- IC50 (HepG2): 72.2 µM

Structure (SMILES): Nc1nn2c(-c3ccc(S(=O)(=O)c4ccccc4)cc3)ccnc2c1/N=N/c1ccccc1
- inhibition zone (IZ) (Bacillus subtilis): 26.5 mm

Structure (SMILES): O=C(Nc1ccccc1-c1ccnc2c(C(=O)NCc3ccccc3Cl)cnn12)c1ccc(Cl)c(Cl)c1
- IC50 (HeLa): 9.1 µM

Structure (SMILES): COc1ccc(NC(=O)c2c(Nc3ccc(OC)cc3OC)nn3c(O)cc(-c4ccccc4)nc23)c(OC)c1
- Activity [1]: 0.5%

Structure (SMILES): CCNc1nn2c(-c3ccc(Br)cc3)ccnc2c1C(N)=O
- inhibition zone (IZ) (Staphylococcus aureus): 9 mm

Structure (SMILES): O=C(Nc1ccccc1-c1ccnc2c(C(=O)NCc3ccc(F)cc3)cnn12)c1ccc(Cl)c(Cl)c1
- IC50 (HeLa): 9.6 µM

Structure (SMILES): COc1ccc(Nc2nn3c(O)cc(-c4ccccc4)nc3c2C(=O)Nc2ccccc2)c(OC)c1
- Activity [1]: 0.5%

Structure (SMILES): NC(=O)c1c(Nc2ccc(Br)cc2)nn2c3c(cnc12)CCCC3
- inhibition zone (IZ) (Pseudomonas aeruginosa): 9 mm
- inhibition zone (IZ) (Bacillus subtilis): 9 mm

Structure (SMILES): COc1ccc(-c2ccnc3c(C(=O)Nc4ccccc4)cnn23)cc1
- inhibition zone (IZ) (Escherichia coli): 10 mm

Structure (SMILES): COC(=O)c1cnc2c(C(=O)Nc3ccccc3)cnn2c1C
- inhibition zone (IZ) (Staphylococcus aureus): 19 mm

Structure (SMILES): O=C(Nc1ccccc1)c1cnn2c(-c3ccc(Cl)cc3)ccnc12
- inhibition zone (IZ) (Staphylococcus aureus): 17 mm
- inhibition zone (IZ) (Escherichia coli): 10 mm

Structure (SMILES): COc1ccc(Nc2nn3c(O)cc(-c4ccccc4)nc3c2C(N)=O)c(OC)c1
- Activity [1]: 0.5%

Structure (SMILES): COc1ccc(-c2cc(C(=O)N3CCN(C(=O)c4ccccc4NCc4ccco4)CC3)nc3cc(-c4ccccc4)nn23)cc1OC
- IC50 (HeLa): 1.56 µM

Structure (SMILES): COc1ccc(Nc2nn3c(C)cc(C)nc3c2C(=O)Nc2ccccc2)c(OC)c1
- Activity [1]: 0.5%

Structure (SMILES): COc1ccc(Nc2nn3c(O)cc(C)nc3c2C(N)=O)c(OC)c1
- Activity [1]: 0.5%

Structure (SMILES): NC(=O)c1c(Nc2ccccc2)nn2c3c(cnc12)CCC3
- inhibition zone (IZ) (Pseudomonas aeruginosa): 9 mm
- inhibition zone (IZ) (Bacillus subtilis): 9 mm

Structure (SMILES): Cc1ccc(Nc2nn3c(-c4ccc(Cl)cc4)ccnc3c2C(N)=O)cc1
- IC50 (HepG2): 72.2 µM

Structure (SMILES): NC(=O)c1c(Nc2ccc(Br)cc2)nn2c3c(cnc12)CCC3
- inhibition zone (IZ) (Pseudomonas aeruginosa): 9 mm
- inhibition zone (IZ) (Bacillus subtilis): 12 mm
- inhibition zone (IZ) (Escherichia coli): 11 mm

Structure (SMILES): COc1ccc(Nc2nn3c(-c4ccccc4)cc(-c4ccccc4)nc3c2C(=O)Nc2ccc(C)cc2)c(OC)c1
- Activity [1]: 0.5%
